# Key:
# Botrytis cinerea = assay: Liquid culture test in well plates, Botrytis cinerea (gray mould), growth inhibition; format: cell-based; settings: 72 hours, 24° C.
# Protocol: (§1) Mycelia fragments or conidia suspensions of a fungus, prepared either freshly from liquid cultures of the fungus or from cryogenic storage, are directly mixed into nutrient broth. DMSO solutions of the test compound (max. 10 mg/mL) is diluted with 0.025% Tween20 by factor 50 and 10 µL of this solution is pipetted into a microtiter plate (96-well format). […] The test plates are incubated in the dark at 24° C. and 96% relative humidity (rh). The inhibition of fungal growth is determined photometrically and visually after 3 - 7 days, depending on the pathosystem, and percent antifungal activity relative to the untreated check is calculated.
# Conidia of the fungus from cryogenic storage were directly mixed into nutrient broth (PDB potato dextrose broth). After placing a DMSO solution of the test compositions into a microtiter plate (96-well format), the nutrient broth containing the fungal spores was added.
# Alternaria solani = assay: Liquid culture test in well plates, Alternaria solani (early blight of tomato/potato), growth inhibition; format: cell-based; settings: 48 hours, 24° C.
# Protocol: as §1
# Conidia of the fungus from cryogenic storage were directly mixed into nutrient broth (PDB potato dextrose broth). After placing a DMSO solution of the test compositions into a microtiter plate (96-well format) the nutrient broth containing the fungal spores was added.
Compound,"inhibition at 0.25 ppm (Botrytis cinerea; Botrytis cinerea, Folpet 0.25 ppm alone, read-out: (B) inhibition (%)) [%]","inhibition at 0.5 ppm (Botrytis cinerea; Botrytis cinerea, Folpet 0.50 ppm alone, read-out: (B) inhibition (%)) [%]","inhibition at 1 ppm (Botrytis cinerea; Botrytis cinerea, Folpet 1.00 ppm alone, read-out: (B) inhibition (%)) [%]","inhibition at 0.25 ppm (Alternaria solani; Alternaria solani, Folpet 0.25 ppm alone, read-out: (B) inhibition (%)) [%]",(A) inhibition (%) (Botrytis cinerea; Aureobasidin A 0.0012 ppm alone),(A) inhibition (%) (Botrytis cinerea; Aureobasidin A 0.0025 ppm alone),(A) inhibition (%) (Botrytis cinerea; Aureobasidin A 0.0050 ppm alone),(A) inhibition (%) (Botrytis cinerea; Aureobasidin A 0.0100 ppm alone),(A) inhibition (%) (Botrytis cinerea; Aureobasidin A 0.0200 ppm alone),(A) inhibition (%) (Alternaria solani; Aureobasidin A 0.02 ppm alone)
"O=C1c2ccccc2C(=O)N1SC(Cl)(Cl)Cl [Folpet, folpet, reference compound]",21,44,78,3,,,,,,
Aureobasidin A,,,,,6,6,4,34,41,24
